Measured values taken from US11130769B2 (Prelude Therapeutics Incorporated, priority 2018, dated 2021).
Read-outs that look alike come from different tables or passages of the source.

Key:
[1] = tested on: H929 cells; experiment: Cell viability assay (H929 10 FBS); format: cell-based; settings: Homo sapiens, NCI-H929, 24 hours, read-out: H929_10FBS IC50
Summary of the method: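 ATP-based luminescence (CellTiter-Glo or ATPlite 1 Step, 30-60 min at RT) gauged viability of H929 myeloma cells after 24 h compound treatment at 37 °C. Cells plated at 4000 per well in 10% FBS RPMI 1640 supplemented with pyruvate, HEPES and glucose.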

[2] = molecular target: MCL-1 (Homo sapiens (Human), UniProt Q07820); experiment: Cell free Mcl-1:Bim affinity assay (fluorescence polarization competition); format: binding; settings: 15 nM MCL-1, 5 nM FITC-Bim, 1 hour at room temperature, read-out: BIM_Ki
Chain of MCL-1 (Q07820 whole entry): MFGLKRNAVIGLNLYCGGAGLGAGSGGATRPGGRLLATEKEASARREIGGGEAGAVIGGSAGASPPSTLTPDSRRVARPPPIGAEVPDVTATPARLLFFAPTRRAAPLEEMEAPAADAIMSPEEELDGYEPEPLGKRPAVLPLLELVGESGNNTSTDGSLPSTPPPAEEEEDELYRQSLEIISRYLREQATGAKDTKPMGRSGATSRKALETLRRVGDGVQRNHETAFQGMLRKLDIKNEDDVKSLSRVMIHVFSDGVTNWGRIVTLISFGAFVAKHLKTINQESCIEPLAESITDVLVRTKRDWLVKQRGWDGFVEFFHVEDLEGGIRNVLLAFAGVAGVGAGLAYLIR
Summary of the method: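 Fluorescence polarization competition: 10-point 3-fold compound dilutions displaced 5 nM FITC-Bim from 15 nM MCL-1 over 1 h at room temperature. Ki was derived from the fitted IC50 using the Nikolovska-Coleska equation, with percent inhibition normalized to DMSO and positive controls.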

SMILES | IC50 [1] [µM] | Ki ([2]; class symbols) [µM] | Ki ([2]; numeric values) [µM]
COC1CCN(C(=O)O[C@H]2/C=C/COC(C)(C)C(=O)NS(=O)(=O)c3ccc4c(c3)N(C[C@@H]3CC[C@H]32)C[C@@]2(CCCc3cc(Cl)ccc32)CO4)CC1 [Example 51, [(3R,6R,7S,8E,22S)-6′-Chloro-12,12-dimethyl-13,15,15-trioxo-spiro[11,20-dioxa-15-thia-1,14-diazatetracyclo[14.7.2.03,6.019,24]pentacosa-8,16,18,24-tetraene-22,1′-tetralin]-7-yl] 4-methoxypiperidine-1-carboxylate] | < 0.5 | < 0.001 | 
CC1(C)OC/C=C/[C@H](OCCN2CCCC2)[C@@H]2CC[C@H]2CN2C[C@@]3(CCCc4cc(Cl)ccc43)COc3ccc(cc32)S(=O)(=O)NC1=O [Example 66, (3R,6R,7S,8E,22S)-6′-Chloro-12,12-dimethyl-15,15-dioxo-7-(2-pyrrolidin-1-ylethoxy)spiro[11,20-dioxa-15-thia-1,14-diazatetracyclo[14.7.2.03,6.019,24]pentacosa-8,16,18,24-tetraene-22,1′-tetralin]-13-one] | < 0.5 | < 0.001 | 
CC1(C)OC/C=C/[C@H](OCC(=O)N[C@H]2CCOC2)[C@@H]2CC[C@H]2CN2C[C@@]3(CCCc4cc(Cl)ccc43)COc3ccc(cc32)S(=O)(=O)NC1=O [Example 285, 2-[(3R,6R,7S,8E,22S)-6′-Chloro-12,12-dimethyl-13,15,15-trioxo-spiro[11,20-dioxa-15λ6-thia-1,14-diazatetracyclo[14.7.2.03,6.019,24]pentacosa-8,16,18,24-tetraene-22,1′-tetralin]-7-yl]oxy-N-[(3S)-tetrahydrofuran-3-yl]acetamide] | < 0.5 | < 0.001 | 
CN(C(=O)O[C@H]1/C=C/COC(C)(C)C(=O)NS(=O)(=O)c2ccc3c(c2)N(C[C@@H]2CC[C@H]21)C[C@@]1(CCOc2cc(Cl)ccc21)CO3)[C@@H]1CCOC1 [Example 301, [(3R,6R,7S,8E,22S)-7′-Chloro-12,12-dimethyl-13,15,15-trioxo-spiro[11,20-dioxa-15-thia-1,14-diazatetracyclo[14.7.2.03,6.019,24]pentacosa-8,16,18,24-tetraene-22,4′-chromane]-7-yl] N-methyl-N-[(3R)-tetrahydrofuran-3-yl]carbamate] | < 0.5 | < 0.001 | 
CN(C)CCN(C)C(=O)O[C@H]1/C=C/CN(C)C(C)(C)C(=O)NS(=O)(=O)c2ccc3c(c2)N(C[C@@H]2CC[C@H]21)C[C@@]1(CCCc2cc(Cl)ccc21)CO3 [Example 213, [(3R,6R,7S,8E,22S)-6′-Chloro-11,12,12-trimethyl-13,15,15-trioxo-spiro[20-oxa-15-thia-1,11,14-triazatetracyclo[14.7.2.03,6.019,24]pentacosa-8,16,18,24-tetraene-22,1′-tetralin]-7-yl] N-[2-(dimethylamino)ethyl]-N-methyl-carbamate] | < 0.5 | < 0.001 | 
Cc1ccc(CC(=O)NS(=O)(=O)c2ccc3c(c2)N(CC2CCC2)C[C@@]2(CCCc4cc(Cl)ccc42)CO3)cn1 [Example 17, 2-(6-Methyl-3-pyridyl)-N-[(3S)-6′-chloro-5-(cyclobutylmethyl)spiro[2,4-dihydro-1,5-benzoxazepine-3,1′-tetralin]-7-yl]sulfonyl-acetamide] | > 1 |  | 0.0074
CN(C)[C@H]1CCN(C(=O)O[C@H]2/C=C/COC(C)(C)C(=O)NS(=O)(=O)c3ccc4c(c3)N(C[C@@H]3CC[C@H]32)C[C@@]2(CCCc3cc(Cl)ccc32)CO4)C1 [Example 154, [(3R,6R,7S,8E,22S)-6′-Chloro-12,12-dimethyl-13,15,15-trioxo-spiro[11,20-dioxa-15-thia-1,14-diazatetracyclo[14.7.2.03,6.019,24]pentacosa-8,16,18,24-tetraene-22,1′-tetralin]-7-yl] (3S)-3-(dimethylamino)pyrrolidine-1-carboxylate] | < 0.5 | < 0.001 | 
O=C1Cc2cccc(c2)S(=O)(=O)C[C@@H]2CC[C@H]2CN2C[C@@]3(CCCc4cc(Cl)ccc43)COc3ccc(cc32)S(=O)(=O)N1 [Example 98, (3R,6R,24S)-6′-Chloro-8,8,17,17-tetraoxo-spiro[22-oxa-8,17-dithia-1,16-diazapentacyclo[16.7.2.19,13.03,6.021,26]octacosa-9(28),10,12,18(27),19,21(26)-hexaene-24,1′-tetralin]-15-one] | > 1 | 0.001 to 0.1 | 
CC1(C)OC/C=C/[C@H](OC(=O)N2CCN(c3ccccn3)CC2)[C@@H]2CC[C@H]2CN2C[C@@]3(CCCc4cc(Cl)ccc43)COc3ccc(cc32)S(=O)(=O)NC1=O [Example 177, [(3R,6R,7S,8E,22S)-6′-Chloro-12,12-dimethyl-13,15,15-trioxo-spiro[11,20-dioxa-15-thia-1,14-diazatetracyclo[14.7.2.03,6.019,24]pentacosa-8,16,18,24-tetraene-22,1′-tetralin]-7-yl] 4-(2-pyridyl)piperazine-1-carboxylate] | < 0.5 | 0.001 to 0.1 | 

The next lines start with the values.

IC50 [1] [µM] | Ki ([2]; class symbols) [µM] | Ki ([2]; numeric values) [µM] | SMILES
> 1 | 0.001 to 0.1 |  | CO[C@@H]1/C=C/CCCCC(=O)NS(=O)(=O)c2ccc3c(c2)N(C[C@@H]2CC[C@H]21)C[C@@]1(CCCc2cc(Cl)ccc21)CO3 [Example 73, (3R,6R,7R,8E,23S)-6′-Chloro-7-methoxy-16,16-dioxo-spiro[21-oxa-16-thia-1,15-diazatetracyclo[15.7.2.03,6.020,25]hexacosa-8,17,19,25-tetraene-23,1′-tetralin]-14-one]
< 0.5 | < 0.001 |  | CN[C@@H]1CCN(C(=O)O[C@H]2/C=C/COC(C)(C)C(=O)NS(=O)(=O)c3ccc4c(c3)N(C[C@@H]3CC[C@H]32)C[C@@]2(CCCc3cc(Cl)ccc32)CO4)C1 [Example 164, [(3R,6R,7S,8E,22S)-6′-Chloro-12,12-dimethyl-13,15,15-trioxo-spiro[11,20-dioxa-15-thia-1,14-diazatetracyclo[14.7.2.03,6.019,24]pentacosa-8,16,18,24-tetraene-22,1′-tetralin]-7-yl] (3R)-3-(methylamino)pyrrolidine-1-carboxylate]
< 1 | 0.001 to 0.1 |  | CO[C@@H]1/C=C/CN(C)[C@H](C)C(=O)NS(=O)(=O)c2ccc3c(c2)N(C[C@@H]2CC[C@H]21)C[C@@]1(CCCc2cc(Cl)ccc21)CO3 [Example 123, (3R,6R,7R,8E,12R,22S)-6′-Chloro-7-methoxy-11,12-dimethyl-15,15-dioxo-spiro[20-oxa-15-thia-1,11,14-triazatetracyclo[14.7.2.03,6.019,24]pentacosa-8,16(25),17,19(24)-tetraene-22,1′-tetralin]-13-one]
< 0.5 | < 0.001 |  | COC1CN(CCO[C@H]2/C=C/COC(C)(C)C(=O)NS(=O)(=O)c3ccc4c(c3)N(C[C@@H]3CC[C@H]32)C[C@@]2(CCCc3cc(Cl)ccc32)CO4)C1 [Example 261, (3R,6R,7S,8E,22S)-6′-Chloro-7-[2-(3-methoxyazetidin-1-yl)ethoxy]-12,12-dimethyl-15,15-dioxo-spiro[11,20-dioxa-15-thia-1,14-diazatetracyclo[14.7.2.03,6.019,24]pentacosa-8,16,18,24-tetraene-22,1′-tetralin]-13-one]
> 1 | 0.001 to 0.1 |  | CO[C@H]1CCCCC(=O)NS(=O)(=O)c2ccc3c(c2)N(C[C@@H]2CC[C@H]21)C[C@@]1(CCCc2cc(Cl)ccc21)CO3 [Example 77, (3R,6R,7S,21S)-6′-Chloro-7-methoxy-14,14-dioxo-spiro[19-oxa-14-thia-1,13-diazatetracyclo[13.7.2.03,6.018,23]tetracosa-15,17,23-triene-21,1′-tetralin]-12-one]
> 1 | 0.001 to 0.1 |  | CO[C@@H]1/C=C\CN[C@@H](C)C(=O)NS(=O)(=O)c2ccc3c(c2)N(C[C@@H]2CC[C@H]21)C[C@@]1(CCCc2cc(Cl)ccc21)CO3 [Example 118, (3R,6R,7R,8Z,12S,22S)-6′-Chloro-7-methoxy-12-methyl-15,15-dioxo-spiro[20-oxa-15-thia-1,11,14-triazatetracyclo[14.7.2.03,6.019,24]pentacosa-8,16(25),17,19(24)-tetraene-22,1′-tetralin]-13-one]
< 0.5 | < 0.001 |  | CN(C)C(=O)CO[C@@H]1/C=C/COC(C)(C)C(=O)NS(=O)(=O)c2ccc3c(c2)N(C[C@@H]2CC[C@H]21)C[C@@]1(CCCc2cc(Cl)ccc21)CO3 [Example 141, 2-[(3R,6R,7R,8E,22S)-6′-Chloro-12,12-dimethyl-13,15,15-trioxo-spiro[11,20-dioxa-15-thia-1,14-diazatetracyclo[14.7.2.03,6.019,24]pentacosa-8,16,18,24-tetraene-22,1′-tetralin]-7-yl]oxy-N,N-dimethyl-acetamide]
< 0.5 | < 0.001 |  | CC1(C)OC/C=C/[C@H](OC(=O)N2CC(O)C2)[C@@H]2CC[C@H]2CN2C[C@@]3(CCCc4cc(Cl)ccc43)COc3ccc(cc32)S(=O)(=O)NC1=O [Example 153]
< 0.5 | < 0.001 |  | O=C1NS(=O)(=O)c2ccc3c(c2)N(C[C@@H]2CC[C@H]2[C@H](O)/C=C/COC12CC2)C[C@@]1(CCCc2cc(Cl)ccc21)CO3 [Example 38, (3R,6R,7R,8E,22S)-6′-Chloro-7-hydroxy-12,12-ethylene-15,15-dioxo-spiro[11,20-dioxa-15-thia-1,14-diazatetracyclo[14.7.2.03,6.019,24]pentacosa[8,16(25),17,19(24)]tetraene-22,1′-tetralin]-13-one]
